Measured values as given in US20180339016A1 (priority 2015, published 2018).
Like-named read-outs stand apart in the source and are kept apart here.

Tests used:
[1] = system: Escherichia coli (ATCC 25922); settings: peptide alone; peptide concentration required to inhibit growth by 20% (so in the source)
Method: (§1) The N-terminus of the peptides were acetylated and the C-terminus was amidated. The kinked structure can rapidly reduce the alpha-helical content, thereby greatly reducing the toxicity of the peptide against host cells. In addition, because of the potential to show specificity for the Gram-negative bacterial membrane, Pro-mutants were prepared by site-directed mutagenesis. Using the prepared peptides, their MIC for the Gram-negative bacterium E. coli and the Gram-positive bacterium S. aureus and their hemolytic activity for host cells were examined (Table 1).
(§2) To measure the synergy between the membrane-activating peptides and the repositioning drug, a 10× compound was prepared, and then serially diluted ⅔-fold with distilled water. An MH broth (900 μl) was added to and mixed with the 10× compound (100 μl), and then 200 μL of the mixture was taken and added to a 96-well plate. E. coli cultured for one day was adjusted to 0.5 MCF using MCFarland, and diluted 10-fold, and then 10 μl of the dilution was added to each well of the plate (5×10^5 CFU/mL). After addition of the bacterial cells, plate was incubated at 37° C. for 18 hours, and then the OD value at UV-Vis (600 nm) was measured. Cell viability (%)=(OD600 of sample−OD600 of negative control)/(OD600 of positive control−OD600 of negative control)×100.

E. coli ATCC 25922 [2] = assay: Antibiotic interaction assay (Wimley), 2/3 broth microdilution: MIC alone, MIC of combination, FICI; type: cell-based; settings: for MIC of combination (μM): antibiotic (colistin): colistin concentration in combination with labelled peptide; for MIC of peptide: peptide alone
Method: Synergy was evaluated by an antibiotic interaction assay (Wimley, 2015) Using the method of Wimley (BBA, 2015, v. 1848(1), pp. 8-15), synergy between the membrane-activating peptide and an antibiotic was measured by an FICI value (FIG. 17). […] Thus, to accurately examine synergy, a ⅔ dilution method which observes MIC at denser concentration intervals is advantageous over a ½ dilution method in statistical terms. […] In the same manner, the MIC of an antibiotic or repositioning drug (second line) is measured. In the third line, the two compounds are mixed after putting half amount each, and the MIC thereof is measured.
A broth microdilution technique (⅔ dilution) was used together with an MH broth. E. coli treated with an antibiotic and the peptide was incubated in a 37° C. incubator for 18 hours.
as §2

E. coli ATCC 25922 [3] = system: E. coli ATCC 25922
[4] = system: Staphylococcus aureus (ATCC 29213); assay: MIC of peptide against S. aureus; type: cell-based; settings: peptide alone
Method: as §1

[5] = labelled peptide + colistin + linezolid
[6] = peptide concentration in combination with colistin
[7] = three compounds: labelled peptide + colistin + linezolid
[8] = Table 13, Lys-Ala scanning library

In the case of KLLKLLKCLLKCLK [8, 12 kink], the “MIC [μM] Against E. coli” value [1] is reported as 1.1 µM, the “MIC of combination (μM): antibiotic (colistin)” value (E. coli ATCC 25922 [2]) is reported as 0.065 µM and the “FICI of peptide with colistin” value (E. coli ATCC 25922 [2]; labelled peptide + colistin) is reported as 0.86. The FICIPeptide (E. coli ATCC 25922 [2]; labelled peptide + colistin) was 0.56, the “FICIcolistin / FICIantibiotic” value (E. coli ATCC 25922 [2]; labelled peptide + colistin) was 0.30 and the “FICI of peptide with colistin and linezolid” value (E. coli ATCC 25922 [2]; [5]) was 1.1. For the same substance, the FICIPeptide (E. coli ATCC 25922 [2]; [5]) was 0.42, the FICIcolistin (E. coli ATCC 25922 [2]; [5]) was 0.29 and the FICIlinezolid (E. coli ATCC 25922 [2]; [5]) was 0.37. For the same substance, the “MIC of peptide” value (E. coli ATCC 25922 [2]) was 1.1 µM, the “MIC of combination (μM): peptide” value (E. coli ATCC 25922 [2]; [6]) was 0.59 µM and the “MIC of combination (μM): colistin” value (E. coli ATCC 25922 [2]; [7]) was 0.065 µM. For the same substance, the “MIC of combination (μM): linezolid” value (E. coli ATCC 25922 [2]; [7]) was 22 µM and the “MIC of combination (μM): peptide” value (E. coli ATCC 25922 [2]; [7]) was 0.44 µM.

KLLKLLKKPLALLK [KL-L9P/K11A] was tested, and the “FICI Against E. coli, Colistin & 1/2 MIC peptide” value (E. coli ATCC 25922 [3]; [8]) was 1.25.

In the case of LKKPLKLPKKLLKL [LK-L4PL8P], the “MIC [μM] Against E. coli” value [1] is reported as 40 µM and the “MIC [μM] Against S. aureus” value [4] is reported as greater than 40 µM.

For KLLALLKKPLKLLK [KL-L9P/K4A], the “FICI Against E. coli, Colistin & 1/2 MIC peptide” value (E. coli ATCC 25922 [3]; [8]) was 0.79.

In the case of KLLKLLKKPLKLAK [KL-L9PL13A], the “MIC [μM] Against E. coli” value [1] is reported as 40 µM, the “increase of FICI value with colistin when peptide changed from 1/4 MIC to 1/2 MIC” value (E. coli ATCC 25922 [3]) is reported as 0.29 and the “FICI Against E. coli, Colistin & 1/2 MIC peptide” value (E. coli ATCC 25922 [3]; Table 15, Leu-Ala scanning) is reported as 0.80. For the same substance, the “FICI Against E. coli, Colistin & 1/4 MIC peptide” value (E. coli ATCC 25922 [3]; Table 15, Leu-Ala scanning) was 0.51.

With LKKPLKLLKKLLKL [LK-L4P] the “MIC [μM] Against E. coli” value [1] was 5 µM and the “MIC [μM] Against S. aureus” value [4] was 40 µM.

With LKKLPKLLKKPLKL [LK-L5PL11P] the “MIC [μM] Against E. coli” value [1] was 40 µM and the “MIC [μM] Against S. aureus” value [4] was greater than 40 µM.

With LKKLLKLLPKLLKL [LK-K9P] the “MIC [μM] Against E. coli” value [1] was 5.0 µM and the “MIC [μM] Against S. aureus” value [4] was 5.0 µM.

ALLKLLKKPLKLLK [KL-L9P/K1A] was tested, and the “FICI Against E. coli, Colistin & 1/2 MIC peptide” value (E. coli ATCC 25922 [3]; [8]) was 0.71.

For KLLKPLKKLLKLLK [KL-L5P], the “MIC [μM] Against E. coli” value [1] was 5.0 µM and the “MIC [μM] Against S. aureus” value [4] was 20 µM.

In the case of LKKLLKPLKKPLKL [LK-L7PL11P], the “MIC [μM] Against E. coli” value [1] is reported as 20 µM and the “MIC [μM] Against S. aureus” value [4] is reported as greater than 40 µM.

With LKKPLKLLKKPLKL [LK-L4PL11P] the “MIC [μM] Against E. coli” value [1] was greater than 40 µM and the “MIC [μM] Against S. aureus” value [4] was greater than 40 µM.

With KLAKLAKKPLKLAK [KLA-L9P] the “MIC [μM] Against E. coli” value [1] was greater than 200 µM.

In the case of KLLKLLKKLLKLPK [KL-L13P], the “MIC [μM] Against E. coli” value [1] is reported as 5 µM and the “MIC [μM] Against S. aureus” value [4] is reported as 10 µM.

For KLLKLLKKDLKLLK [KL L9D], the “MIC [μM] Against E. coli” value [1] was 20 µM, the “MIC of combination (μM): antibiotic (colistin)” value (E. coli ATCC 25922 [2]) was 0.09 µM and the “FICI of peptide with colistin” value (E. coli ATCC 25922 [2]; labelled peptide + colistin) was 0.46. The FICIPeptide (E. coli ATCC 25922 [2]; labelled peptide + colistin) was 0.28, the “FICIcolistin / FICIantibiotic” value (E. coli ATCC 25922 [2]; labelled peptide + colistin) was 0.18 and the “FICI of peptide with simvastatin” value (E. coli ATCC 25922 [2]; labelled peptide + simvastatin) was 0.61. The FICIPeptide (E. coli ATCC 25922 [2]; labelled peptide + simvastatin) was 0.5, the FICIsimvastatin (E. coli ATCC 25922 [2]; labelled peptide + simvastatin) was 0.11 and the “MIC of peptide” value (E. coli ATCC 25922 [2]) was 18 µM. For the same substance, the “MIC of combination (μM): peptide” value (E. coli ATCC 25922 [2]; [6]) was 5 µM, the “MIC of combination (μM): peptide” value (E. coli ATCC 25922 [2]; peptide concentration in combination with simvastatin) was 9 µM and the “MIC of combination (μM): simvastatin” value (E. coli ATCC 25922 [2]; simvastatin concentration in combination with labelled peptide) was 83.33 µM.

KLLKLLKKNLKLLK [KL L9N] was tested, and the “MIC [μM] Against E. coli” value [1] was 2.5 µM.

With Ac-KLLKALKKPLKLLK-NH2 [KL-L5AL9P] the “MIC [μM] Against E. coli” value [1] was 18 µM, the “increase of FICI value with colistin when peptide changed from 1/4 MIC to 1/2 MIC” value (E. coli ATCC 25922 [3]) was 0.37 and the “FICI Against E. coli, Colistin & 1/2 MIC peptide” value (E. coli ATCC 25922 [3]; Table 15, Leu-Ala scanning) was 0.86. The “FICI Against E. coli, Colistin & 1/4 MIC peptide” value (E. coli ATCC 25922 [3]; Table 15, Leu-Ala scanning) was 0.49.

In the case of LKKLLKLLKKLLKL, the “MIC [μM] Against E. coli” value [1] is reported as 20 µM and the “MIC [μM] Against S. aureus” value [4] is reported as 20 µM.

LKKLPKLLKKLLKL [LK-L5P] was tested, and the “MIC [μM] Against E. coli” value [1] was 5.0 µM and the “MIC [μM] Against S. aureus” value [4] was 20 µM.

For KLLKLLKKPLKLLA [KL-L9P/K14A], the “FICI Against E. coli, Colistin & 1/2 MIC peptide” value (E. coli ATCC 25922 [3]; [8]) was 0.66.

In the case of LKKLLPLLKKLLKL [LK-K6P], the “MIC [μM] Against E. coli” value [1] is reported as 2.5 µM and the “MIC [μM] Against S. aureus” value [4] is reported as 5.0 µM.

KLLKLLKKGLKLLK [KL L9G] was tested, and the “MIC [μM] Against E. coli” value [1] was 1.25 µM.
